This data set in a line: Valia-Chien diffusion cell, trans-membrane diffusion of RhoB. Format: in vitro ADME. From the text: A Valia-Chien cell apparatus separated by an artificial barrier membrane was used to compare the in vitro drug delivery kinetics of the small molecule Rhodamine B delivered via P407 and saline solution, both with and without perforations. The applied methods for measuring trans-membrane diffusion were adapted from the American Association of Pharmaceutical Scientists as well as the Federal Drug Administration recommendations for in vitro percutaneous absorption rate studies (EPA, Recommended Protocol For In Vitro Percutaneous Absorption Rate Studies, Federal Register Notices, 61(65):14773-14778, 1996. Agency Docket: OPPTS-42186A.)
P407 powder (Spectrum Chemical, Gardena, CA) was mixed with demineralized water and RhoB to create a 0.1 mM RhoB solution in 18% P407 by weight. The resulting mixture was stirred at room temperature and kept overnight in a refrigerator at 3 to 4° C. to facilitate dissolution of the P407 powder. At the chosen P407 concentration, the mixture transitioned into gel upon placement within the room-temperature testing apparatus.
Diffusion of RhoB through an artificial membrane barrier was performed using 9 mm clear unjacketed Valia-Chien diffusion cells (PermeGear Inc., Hellertown, PA) with 5 mL volumes and flat-ground joints. […] The Valia-Chien diffusion cells 800 were arranged horizontally, mitigating the effects of gravity on particle movement and allowing for active stirring of both the donor 810 and receptor compartments 820 by magnetic mini-stirrers 840 (HI 190M-1, Hanna Instruments, Woonsocket, RI). A 3D-printed adapter 850 was used as a conduit between the chambers 810, 820.
The donor chamber 810 was filled with 5.0 mL volumes of: (A) 0.1 mM RhoB in PBS or (B) 0.1 mM RhoB in 18% P407. An additional sample of donor solution was reserved for the calibration of fluorescence detection, as detailed below. Active stirring of the donor chamber 810 was performed for experiments utilizing PBS, but not those utilizing gelified P407. Initial filling of the donor chamber marked time zero for each experiment.
The receptor chamber 820 was filled with 5.0 mL of PBS prepared by dissolving 9.6 g of Dulbecco's Phosphate Buffered Saline powder (Sigma-Aldrich) in 1.0 L deionized water. An Eppendorf micropipette was used to withdraw 75 μL of fluid from the receptor chamber every 15 minutes, from 0 min to 165 min, for a total of 12 samples. The collected samples were placed in individual wells of a 96-well plate for further analysis. The withdrawn solution was replaced with 75 μL of PBS to prevent advection of fluid within the system. […] Active stirring of the receptor chamber 820 was performed for all experiments.
Whatman™ Grade 2 Qualitative Filter Paper with diameter 5.5 cm, thickness 190 μm and pore size 8.0 μm (Whatman Limited, England) was used as an artificial membrane 830 barrier separating the donor and receptor chambers. […] Using an artificial barrier controlled for pore size as well as membrane thickness. The filter paper was cut to fit a custom 3D-printed diffusion cell adapter, which was circumferentially sealed with general-purpose epoxy. Teflon tape was used to prevent leakage between the 3D-printed adapter and the joint, which were secured with a standard Valia-Chien cell clamp. The filter paper was equilibrated in PBS solution for 30 min prior to any contact with donor substance. […]

As to `CCN(CC)c1ccc2c(-c3ccccc3C(=O)O)c3ccc(=[N+](CC)CC)cc-3oc2c1.[Cl-]` [RhoB, Rhodamine B], the permeance is 3.0×10^−7 m s^−1 (RhoB in P407, membrane with one 200 μm perforation); 2.2×10^−7 m s^−1 (RhoB in P407, unperforated artificial membrane); 3.04×10^−6 m s^−1 (RhoB in PBS, unperforated artificial membrane). For the same compound, the “diffusion rate in P407 relative to saline (times lower)” value (after the initial burst release) is reported as “more than 10 times”. For the same compound, where the note is “saline as solvent, membranes with up to four 100 μm perforations vs unperforated”, the “increase in measured permeance” value turned out to be 1.5 fold.

The values above are taken from patent US12263066B2, “Apparatuses, systems and methods for perforating and aspirating inner ear” (priority 2018, dated 2025).
